What was measured:
Test in all cases: relative viability (nuclei count vs DMSO), 5 days (fraction); higher = more cells survive
[1] = compound: COc1cc2/c(=N/c3ccc(Br)cc3F)nc[nH]c2cc1OCC1CCN(C)CC1 [Vandetanib] + CC(=O)c1c(C)c2cnc(Nc3ccc(N4CCNCC4)cn3)nc2n(C2CCCC2)c1=O [Palbociclib] (partner 0.5 µM)
In short: (§1)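 Lung cancer cell lines in 1536-well plates were dosed by pin tool the day after seeding, either with one drug alone or with a fixed anchor-drug dose plus five library-drug doses (not always all listed) in √10 steps. After 5 days, cells were fixed and their nuclei stained in one step (final 0.05% Triton X-100, 1% formaldehyde, 1 ug/ml Hoechst), then counted on 4× images. Relative viability is the nuclei count in treated wells divided by that in vehicle wells. Values are medians of duplicate plates.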

[2] = compound: C1=CC=C2C(=C1)N=C(S2)C(C#N)C3=NC(=NC=C3)NCCC4=CN=CC=C4 + CC(C)C[C@H](NC(=O)[C@H](Cc1ccccc1)NC(=O)c1cnccn1)B(O)O [Bortezomib] (partner 0.002 µM)
In short: as §1

[3] = compound: C1=CC=C2C(=C1)N=C(S2)C(C#N)C3=NC(=NC=C3)NCCC4=CN=CC=C4 + COc1cc2c(Oc3ccc(NC(=O)C4(C(=O)Nc5ccc(F)cc5)CC4)cc3F)ccnc2cc1OCCCN1CCOCC1 [Foretinib] (partner 0.25 µM)
In short: as §1

[4] = compound: COc1cc2/c(=N/c3ccc(Br)cc3F)nc[nH]c2cc1OCC1CCN(C)CC1 [Vandetanib] + C[C@]1(O)C[C@@H](c2nc(-c3ccc4ccc(-c5ccccc5)nc4c3)c3c(N)nccn32)C1 [Linsitinib] (partner 1 µM)
In short: as §1

Cell Line: ABC-1
- relative viability ([1]; first compound 0.02 µM): 0.91
- relative viability ([1]; first compound 0.06325 µM): 0.541
- relative viability ([1]; first compound 0.2 µM): 0.693
- relative viability ([1]; first compound 0.6325 µM): 0.708
- relative viability ([1]; first compound 2 µM): 0.643
- relative viability ([2]; first compound 0.005 µM): 0.348
- relative viability ([2]; first compound 0.01581 µM): 0.292
- relative viability ([2]; first compound 0.05 µM): 0.262
- relative viability ([2]; first compound 0.1581 µM): 0.313
- relative viability ([2]; first compound 0.5 µM): 0.387
- relative viability ([3]; first compound 0.005 µM): 1.2
- relative viability ([3]; first compound 0.01581 µM): 1.01
- relative viability ([3]; first compound 0.05 µM): 0.935
- relative viability ([3]; first compound 0.1581 µM): 1.12
- relative viability ([3]; first compound 0.5 µM): 1
- relative viability ([4]; first compound 0.02 µM): 1.03
- relative viability ([4]; first compound 0.06325 µM): 0.805
- relative viability ([4]; first compound 0.2 µM): 1.02
- relative viability ([4]; first compound 0.6325 µM): 0.849
- relative viability ([4]; first compound 2 µM): 0.598

Cell Line: NCI-H727
- relative viability ([1]; first compound 0.02 µM): 0.622
- relative viability ([1]; first compound 0.06325 µM): 0.692
- relative viability ([1]; first compound 0.2 µM): 0.679
- relative viability ([1]; first compound 0.6325 µM): 0.578
- relative viability ([1]; first compound 2 µM): 0.56
- relative viability ([2]; first compound 0.005 µM): 0.526
- relative viability ([2]; first compound 0.01581 µM): 0.76
- relative viability ([2]; first compound 0.05 µM): 0.819
- relative viability ([2]; first compound 0.1581 µM): 1.13
- relative viability ([2]; first compound 0.5 µM): 0.624
- relative viability ([3]; first compound 0.005 µM): 1.07
- relative viability ([3]; first compound 0.01581 µM): 0.73
- relative viability ([3]; first compound 0.05 µM): 0.922
- relative viability ([3]; first compound 0.1581 µM): 1.03
- relative viability ([3]; first compound 0.5 µM): 0.809
- relative viability ([4]; first compound 0.02 µM): 0.216
- relative viability ([4]; first compound 0.06325 µM): 0.336
- relative viability ([4]; first compound 0.2 µM): 0.347
- relative viability ([4]; first compound 0.6325 µM): 0.283
- relative viability ([4]; first compound 2 µM): 0.271

Cell Line: PC-3 [JPC-3]
- relative viability ([1]; first compound 0.02 µM): 0.509
- relative viability ([1]; first compound 0.06325 µM): 0.527
- relative viability ([1]; first compound 0.2 µM): 0.592
- relative viability ([1]; first compound 0.6325 µM): 0.553
- relative viability ([1]; first compound 2 µM): 0.464
- relative viability ([2]; first compound 0.005 µM): 0.527
- relative viability ([2]; first compound 0.01581 µM): 0.854
- relative viability ([2]; first compound 0.05 µM): 0.826
- relative viability ([2]; first compound 0.1581 µM): 0.923
- relative viability ([2]; first compound 0.5 µM): 0.81
- relative viability ([3]; first compound 0.005 µM): 0.984
- relative viability ([3]; first compound 0.01581 µM): 1.12
- relative viability ([3]; first compound 0.05 µM): 1.07
- relative viability ([3]; first compound 0.1581 µM): 1.14
- relative viability ([3]; first compound 0.5 µM): 0.961
- relative viability ([4]; first compound 0.02 µM): 0.946
- relative viability ([4]; first compound 0.06325 µM): 0.882
- relative viability ([4]; first compound 0.2 µM): 0.963
- relative viability ([4]; first compound 0.6325 µM): 0.876
- relative viability ([4]; first compound 2 µM): 0.522

Cell Line: NCI-H1355
- relative viability ([1]; first compound 0.02 µM): 0.437
- relative viability ([1]; first compound 0.06325 µM): 0.399
- relative viability ([1]; first compound 0.2 µM): 0.408
- relative viability ([1]; first compound 0.6325 µM): 0.387
- relative viability ([1]; first compound 2 µM): 0.373
- relative viability ([2]; first compound 0.005 µM): 1.1
- relative viability ([2]; first compound 0.01581 µM): 1.1
- relative viability ([2]; first compound 0.05 µM): 1.22
- relative viability ([2]; first compound 0.1581 µM): 1.27
- relative viability ([2]; first compound 0.5 µM): 1.1
- relative viability ([3]; first compound 0.005 µM): 0.929
- relative viability ([3]; first compound 0.01581 µM): 1.06
- relative viability ([3]; first compound 0.05 µM): 0.96
- relative viability ([3]; first compound 0.1581 µM): 1.08
- relative viability ([3]; first compound 0.5 µM): 0.923
- relative viability ([4]; first compound 0.02 µM): 0.732
- relative viability ([4]; first compound 0.06325 µM): 0.732
- relative viability ([4]; first compound 0.2 µM): 0.551
- relative viability ([4]; first compound 0.6325 µM): 0.812
- relative viability ([4]; first compound 2 µM): 0.755

Cell Line: HCC-827
- relative viability ([1]; first compound 0.02 µM): 0.479
- relative viability ([1]; first compound 0.06325 µM): 0.468
- relative viability ([1]; first compound 0.2 µM): 0.227
- relative viability ([1]; first compound 0.6325 µM): 0.263
- relative viability ([1]; first compound 2 µM): 0.166
- relative viability ([2]; first compound 0.005 µM): 0.999
- relative viability ([2]; first compound 0.01581 µM): 1.04
- relative viability ([2]; first compound 0.05 µM): 1.09
- relative viability ([2]; first compound 0.1581 µM): 1.15
- relative viability ([2]; first compound 0.5 µM): 1.06
- relative viability ([3]; first compound 0.005 µM): 1.06
- relative viability ([3]; first compound 0.01581 µM): 1.06
- relative viability ([3]; first compound 0.05 µM): 1.06
- relative viability ([3]; first compound 0.1581 µM): 1.16
- relative viability ([3]; first compound 0.5 µM): 1.13
- relative viability ([4]; first compound 0.02 µM): 0.922
- relative viability ([4]; first compound 0.06325 µM): 0.941
- relative viability ([4]; first compound 0.2 µM): 0.929
- relative viability ([4]; first compound 0.6325 µM): 0.367
- relative viability ([4]; first compound 2 µM): 0.198

Cell Line: NCI-H2405
- relative viability ([1]; first compound 0.02 µM): 0.494
- relative viability ([1]; first compound 0.06325 µM): 0.39
- relative viability ([1]; first compound 0.2 µM): 0.514
- relative viability ([1]; first compound 0.6325 µM): 0.592
- relative viability ([1]; first compound 2 µM): 0.514
- relative viability ([2]; first compound 0.005 µM): 1.04
- relative viability ([2]; first compound 0.01581 µM): 0.965
- relative viability ([2]; first compound 0.05 µM): 0.982
- relative viability ([2]; first compound 0.5 µM): 0.998
- relative viability ([3]; first compound 0.005 µM): 1.02
- relative viability ([3]; first compound 0.01581 µM): 1.04
- relative viability ([3]; first compound 0.05 µM): 1.04
- relative viability ([3]; first compound 0.1581 µM): 1.07
- relative viability ([3]; first compound 0.5 µM): 1
- relative viability ([4]; first compound 0.02 µM): 0.901
- relative viability ([4]; first compound 0.06325 µM): 0.552
- relative viability ([4]; first compound 0.2 µM): 0.959
- relative viability ([4]; first compound 0.6325 µM): 1.01
- relative viability ([4]; first compound 2 µM): 0.665

Cell Line: NCI-H650
- relative viability ([1]; first compound 0.02 µM): 0.358
- relative viability ([1]; first compound 0.06325 µM): 0.317
- relative viability ([1]; first compound 0.2 µM): 0.366
- relative viability ([1]; first compound 0.6325 µM): 0.323
- relative viability ([1]; first compound 2 µM): 0.291
- relative viability ([2]; first compound 0.005 µM): 0.482
- relative viability ([2]; first compound 0.01581 µM): 0.528
- relative viability ([2]; first compound 0.05 µM): 0.748
- relative viability ([2]; first compound 0.1581 µM): 1.22
- relative viability ([2]; first compound 0.5 µM): 0.778
- relative viability ([3]; first compound 0.005 µM): 0.946
- relative viability ([3]; first compound 0.05 µM): 0.993
- relative viability ([3]; first compound 0.1581 µM): 0.942
- relative viability ([3]; first compound 0.5 µM): 1.1
- relative viability ([4]; first compound 0.02 µM): 0.872
- relative viability ([4]; first compound 0.06325 µM): 0.839
- relative viability ([4]; first compound 0.2 µM): 0.677
- relative viability ([4]; first compound 0.6325 µM): 0.792
- relative viability ([4]; first compound 2 µM): 0.254

Cell Line: HCC-366
- relative viability ([1]; first compound 0.02 µM): 0.423
- relative viability ([1]; first compound 0.06325 µM): 0.41
- relative viability ([1]; first compound 0.2 µM): 0.453
- relative viability ([1]; first compound 0.6325 µM): 0.394
- relative viability ([1]; first compound 2 µM): 0.351
- relative viability ([2]; first compound 0.005 µM): 0.85
- relative viability ([2]; first compound 0.01581 µM): 1.1
- relative viability ([2]; first compound 0.05 µM): 1.07
- relative viability ([2]; first compound 0.1581 µM): 1.3
- relative viability ([2]; first compound 0.5 µM): 0.927
- relative viability ([3]; first compound 0.005 µM): 0.832
- relative viability ([3]; first compound 0.01581 µM): 0.839
- relative viability ([3]; first compound 0.05 µM): 0.872
- relative viability ([3]; first compound 0.1581 µM): 0.915
- relative viability ([3]; first compound 0.5 µM): 0.923
- relative viability ([4]; first compound 0.02 µM): 0.644
- relative viability ([4]; first compound 0.06325 µM): 0.488
- relative viability ([4]; first compound 0.2 µM): 0.584
- relative viability ([4]; first compound 0.6325 µM): 0.636
- relative viability ([4]; first compound 2 µM): 0.526

Reference: the supplement of paper PMC10307832
